According to patent US10077241B2 (Janssen Pharmaceutica NV, priority 2014, dated 2018):

Tests used:
[1] = molecular target: T1, TGR5 (NCI-H716 cell line) (Homo sapiens, UniProt Q8TDU6); test: NCI-H716 cAMP Agonist EC50 Determination
T1 sequence (Q8TDU6 1-330): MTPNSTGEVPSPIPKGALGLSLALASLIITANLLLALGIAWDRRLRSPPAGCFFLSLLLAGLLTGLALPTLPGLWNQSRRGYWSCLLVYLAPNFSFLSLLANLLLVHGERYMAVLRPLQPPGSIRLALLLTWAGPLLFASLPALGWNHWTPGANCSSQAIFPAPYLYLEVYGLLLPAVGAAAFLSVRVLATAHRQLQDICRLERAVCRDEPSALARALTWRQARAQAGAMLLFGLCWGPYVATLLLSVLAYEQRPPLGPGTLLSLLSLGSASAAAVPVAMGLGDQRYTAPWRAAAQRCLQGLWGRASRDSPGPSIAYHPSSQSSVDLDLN

TGR5 (STC1 cell line) = molecular target: T2, TGR5 (STC1 cell line) (Mus musculus, UniProt Q80SS6); test: STC1 cAMP Agonist EC50 Determination
T2 sequence (Q80SS6 1-329): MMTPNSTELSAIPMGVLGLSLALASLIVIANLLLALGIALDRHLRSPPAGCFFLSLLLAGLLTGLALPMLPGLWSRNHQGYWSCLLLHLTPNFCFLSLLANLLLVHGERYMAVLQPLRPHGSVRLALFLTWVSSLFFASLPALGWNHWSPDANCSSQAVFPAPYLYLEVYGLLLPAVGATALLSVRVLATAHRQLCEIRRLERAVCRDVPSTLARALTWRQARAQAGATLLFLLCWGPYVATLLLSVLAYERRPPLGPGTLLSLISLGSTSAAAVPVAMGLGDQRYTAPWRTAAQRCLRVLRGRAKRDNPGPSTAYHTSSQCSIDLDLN

EC50 [1] | EC50 (TGR5 (STC1 cell line)) | SMILES
2.6 µM | 0.22 µM | COc1ccc(C2(C)CCCc3nc(SCc4c(F)cccc4[N+](=O)[O-])n(-c4ccc(F)cc4)c32)cc1OC (centres unmarked) [Example 115, 7-(3,4-dimethoxyphenyl)-2-((2-fluoro-6-nitrobenzyl)thio)-1-(4-fluorophenyl)-7-methyl-4,5,6,7-tetrahydro-1H-benzo[d]imidazole]
> 50 µM | 1.18 µM | COc1cc(C2(C)CCCc3nc(SCc4c(F)cc(C(=O)O)cc4F)n(-c4ccc(F)cc4)c32)ccc1F (centres unmarked) [Example 120, 3,5-difluoro-4-(((7-(4-fluoro-3-methoxyphenyl)-1-(4-fluorophenyl)-7-methyl-4,5,6,7-tetrahydro-1H-benzo[d]imidazol-2-yl)thio)methyl)benzoic acid]
> 50 µM | 14.1 µM | COc1cc(C2(C=O)CCCc3nc(SCc4c(F)cccc4Cl)n(-c4ccc(F)cc4)c32)ccc1Cl (centres unmarked) [Example 130, 4-(4-chloro-3-methoxyphenyl)-2-(2-chloro-6-fluorobenzylthio)-3-(4-fluorophenyl)-4,5,6,7-tetrahydro-3H-benzo[d]imidazole-4-carbaldehyde trifluoroacetic acid]
> 50 µM | 0.88 µM | C=C1COC(c2ccc(Cl)c(OC)c2)c2c1nc(SCc1c(F)cccc1Cl)n2-c1ccc(F)cc1 (centres unmarked) [Example 137, 4-(4-chloro-3-methoxyphenyl)-2-((2-chloro-6-fluorobenzyl)thio)-3-(4-fluorophenyl)-7-methylene-3,4,6,7-tetrahydropyrano[3,4-d]imidazole]

Continued, molecule first:

SMILES | EC50 [1] | EC50 (TGR5 (STC1 cell line))
COc1ccc(C2(C)CCCc3nc(SCc4nccs4)n(-c4ccc(F)cc4)c32)cc1OC (centres unmarked) [Example 117, 2-(((7-(3,4-dimethoxyphenyl)-1-(4-fluorophenyl)-7-methyl-4,5,6,7-tetrahydro-1H-benzo[d]imidazol-2-yl)thio)methyl)thiazole] | 2.65 µM | 0.41 µM
COc1cc(C2(C)CCCc3nc(SCc4c(F)cc(-c5nnn[nH]5)cc4F)n(-c4ccc(F)cc4)c32)ccc1F (centres unmarked) [Example 121, 2-((2,6-difluoro-4-(1H-tetrazol-5-yl)benzyl)thio)-7-(4-fluoro-3-methoxyphenyl)-1-(4-fluorophenyl)-7-methyl-4,5,6,7-tetrahydro-1H-benzo[d]imidazole] | > 50 µM | 3.11 µM
COc1cc(C2(C)CCCc3nc(SCc4c(F)cc(C(=O)N5CCOCC5)cc4F)n(-c4ccc(F)cc4)c32)ccc1F (centres unmarked) [Example 122, (3,5-difluoro-4-(((7-(4-fluoro-3-methoxyphenyl)-1-(4-fluorophenyl)-7-methyl-4,5,6,7-tetrahydro-1H-benzo[d]imidazol-2-yl)thio)methyl)phenyl) (morpholino)methanone] | 18.8 µM | 0.09 µM
COc1cc(C2(C)CCCc3nc(SCc4c(F)cc(C(=O)NCCOCCOCCOCCO)cc4F)n(-c4ccc(F)cc4)c32)ccc1F (centres unmarked) [Example 123, 3,5-difluoro-4-(((7-(4-fluoro-3-methoxyphenyl)-1-(4-fluorophenyl)-7-methyl-4,5,6,7-tetrahydro-1H-benzo[d]imidazol-2-yl)thio)methyl)-N-(2-(2-(2-(2-hydroxyethoxy)ethoxy)ethoxy)ethyl) benzamide] | 17 µM | 0.05 µM
COCCNC(=O)c1cc(F)c(CSc2nc3c(n2-c2ccc(F)cc2)C(C)(c2ccc(F)c(OC)c2)CCC3)c(F)c1 (centres unmarked) [Example 124, 3,5-difluoro-4-(((7-(4-fluoro-3-methoxyphenyl)-1-(4-fluorophenyl)-7-methyl-4,5,6,7-tetrahydro-1H-benzo[d]imidazol-2-yl)thio)methyl)-N-(2-methoxyethyl)benzamide] | > 50 µM | 0.8 µM
COc1cc(C2OCCc3nc(SCc4c(F)cc(OCCOCCOCCCl)cc4F)n(-c4ccc(F)cc4)c32)ccc1Cl (centres unmarked) [Example 133, 4-(4-chloro-3-methoxyphenyl)-2-((4-(2-(2-(2-chloroethoxy)ethoxy)ethoxy)-2,6-difluorobenzyl)thio)-3-(4-fluorophenyl)-3,4,6,7-tetrahydropyrano[3,4-d]imidazole] | > 50 µM | 6.07 µM
Cc1nc2ccc(C3OCCc4nc(SCc5c(F)cccc5Cl)n(-c5ccc(F)cc5)c43)cc2o1 (centres unmarked) [Example 135, 2-((2-chloro-6-fluorobenzyl)thio)-3-(4-fluorophenyl)-4-(2-methylbenzo[d]oxazol-6-yl)-3,4,6,7-tetrahydropyrano[3,4-d]imidazole] | 11 µM | 3.84 µM
C=C1COC(c2ccc(OC)c(OC)c2)c2c1nc(SCc1c(F)cccc1Cl)n2-c1ccc(F)cc1 (centres unmarked) [Example 136, 2-((2-chloro-6-fluorobenzyl)thio)-4-(3,4-dimethoxyphenyl)-3-(4-fluorophenyl)-7-methylene-3,4,6,7-tetrahydropyrano[3,4-d]imidazole] | > 50 µM | 1.53 µM
C=C1COC(c2ccc(F)c(OC)c2)c2c1nc(SCc1c(F)cccc1Cl)n2-c1ccc(F)cc1 (centres unmarked) [Example 138, 4-(4-Fluoro-3-methoxyphenyl)-2-((2-chloro-6-fluorobenzyl)thio)-3-(4-fluorophenyl)-7-methylene-3,4,6,7-tetrahydropyrano[3,4-d]imidazole] | > 50 µM | 3.26 µM
